Assay [1] has as its system GIST882 cell line. As to the kind of experiment: Cancer cell cytotoxicity assay (sulforhodamine B). The assay is classed as cell-based. How it is done:
(§1) To validate the hypothesis that the designed c-kit/PDGFR tyrosine kinase inhibitors mediate GIST882 cell killing and PDGFR-mediated cell killing of pancreatic cancer cell lines (CFPAC-1, PANC-1 and MIA PaCa-2), an in vitro cytotoxicity assay was performed. The GIST882 cell line used in this study has a c-kit gain-of-function mutation (K642E). […] First the cells were cultured. GIST882 cells were provided by Dr. Jonathan A. Fletcher (Dana-Farber Cancer Institute, Boston, Mass.). PANC-1 and MIAPaCa-2 cells were provided by Dr. Daniel Von Hoff (Arizona Cancer Center, Tucson, Ariz.). […] All the cell lines were incubated in a humidified incubator at 37° C. with 5% CO2 atmosphere.
(§2) After incubation for 4 days at 37° C. in a humidified incubator, the cells were fixed with 10% Trichloroacetic acid solution (Catalog No. 490-10, Sigma). Subsequently, they were labeled with 0.04% Sulforhodamine B (S9012, Sigma) in 1% acetic acid. After multiple washes to remove excess dye, 100 μl of 50 mM Tris solution was added to each well in order to dissolve the dye. The absorbance of each well was read on a plate reader (Wallac Vector^2, PerkinElmer) at the wavelength of 570 nm. Data were expressed as the percentage of survival of control calculated from the absorbance corrected for background absorbance. The surviving percent of cells was determined by dividing the mean absorbance values of the […] by the mean absorbance values of the control and multiplying by 100.

Another assay has as its system PANC-1 cells. Briefly: Cancer cell cytotoxicity assay (sulforhodamine B). The assay is classed as cell-based. The note with it: Homo sapiens, 96 h; PANC-1, 4 days; read-out: IC50 PDGFR PANC-1. Here is the method:
To validate the hypothesis that the designed c-kit/PDGFR tyrosine kinase inhibitors mediate GIST882 cell killing and PDGFR-mediated cell killing of pancreatic cancer cell lines (CFPAC-1, PANC-1 and MIA PaCa-2), an in vitro cytotoxicity assay was performed. The GIST882 cell line used in this study has a c-kit gain-of-function mutation (K642E). The assay utilized the Cell Titer 965 Non-Radioactive Cell Proliferation Assay (Promega Corp., Madison, Wis.). First the cells were cultured. GIST882 cells were provided by Dr. Jonathan A. Fletcher (Dana-Farber Cancer Institute, Boston, Mass.). PANC-1 and MIAPaCa-2 cells were provided by Dr. Daniel Von Hoff (Arizona Cancer Center, Tucson, Ariz.). GIST882 cells were cultured in RPMI 1640 medium (Cat #21870-076, Invitrogen Corporation) supplemented with 300 mg/L L-glutamine, 100 unit/ml penicillin, 100 μg/ml streptomycin and 15% fetal bovine serum. PANC-1 and MIAPaCa-2 cells were maintained in RPMI 1640 medium (cat #10-040, Mediatech, Inc.) supplemented with 100 unit/ml penicillin, 100 μg/ml streptomycin and 10% fetal bovine serum. All the cell lines were incubated in a humidified incubator at 37° C. with 5% CO2 atmosphere.
as §2, with “Cells were plated at a density of 2000 to 10000 cells per well, depending on their growth rate, in 0.1 mL medium on day 0 in 96-well Falcon microtiter plates (#3072, Becton-Dickinson Labware, Lincoln Park, N.J.). On day 1, 10 μL of serial dilutions of the individual compounds were added to the plates in replicates of 4. After incubation” for “After incubation”

The test system of assay [2] is pancreatic cancer cell lines MIAPaCa-2 and PANC-1. Briefly: Cancer cell cytotoxicity assay, range over both pancreatic lines. Format: cell-based. The note with it: potency order. How it is done:
as §1
as §2, with “After multiple washes to remove excess dye, 100 μl of 50 mM Tris solution was added to each well in order to dissolve the dye.” left out

Assay [3] has as its system GIST882 cell line. Briefly: GIST882 cell growth assay (Cell-Titer-Glo). Format: cell-based. Here is the method: (§3) Briefly, cells are seeded into 96-well, tissue-culture treated, opaque white plates (Thermo Electron, Vantaa, Finland), at between 5000 and 7500 cells per well, depending on the speed of cell proliferation, in 100 μl of appropriate growth medium (determined by the ATCC). Cells are then exposed to the appropriate concentration of drug or an equal amount of DMSO (drug diluent) and allowed to grow in its presence for 96 hours. Following this, 100 μl of Cell-Titer-Glo reagent (Promega, Inc., Madison, Wis.) is added to each well. Plates are then shaken for 2 minutes at room temperature to allow for cell lysis and incubated for 10 minutes to stabilize the luminescent signal. Similar to the Kinase-Glo assay reagent, this reagent contains both luciferase enzyme and its substrate luciferin. Luciferase, activated by ATP in the cell lysate, catalyzes the conversion of luciferin to oxyluciferin, a reaction which produces light. The amount of light produced is proportionate to the amount of ATP in the cell lysate, which is itself proportional to cell number and gives an index of cellular proliferation.
as §3, with “Various compounds of the invention, including (IV-1-3) (also referred to as HPK16), (III-1-3) (also referred to as HPK56), (III-1-4) (also referred to as HPK57), (III-1-5) (also referred to as HPK59), and (II-2-7) (also referred to as HPK61) were tested for activity against GIST tumor cells using the GIST882 cell line. Briefly,” for “Briefly,”

In a further assay the target is c-Kit (Homo sapiens, UniProt P10721). Briefly: Autophosphorylation assay with γ-32P-ATP. Format: biochemical. The note with it: FIG. 28A. Here is the method:
Enzymes were incubated with the appropriate concentration of inhibitor and radiolabeled γ-^32P-ATP. After 30 minutes, the reaction mixtures were electrophoresed on an acrylamide gel and autophosphorylation, quantitated by the amount of radioactivity incorporated into the enzyme, was assayed.

pIC50: −log10 of the molar value.

Chain of c-Kit (P10721 26-976): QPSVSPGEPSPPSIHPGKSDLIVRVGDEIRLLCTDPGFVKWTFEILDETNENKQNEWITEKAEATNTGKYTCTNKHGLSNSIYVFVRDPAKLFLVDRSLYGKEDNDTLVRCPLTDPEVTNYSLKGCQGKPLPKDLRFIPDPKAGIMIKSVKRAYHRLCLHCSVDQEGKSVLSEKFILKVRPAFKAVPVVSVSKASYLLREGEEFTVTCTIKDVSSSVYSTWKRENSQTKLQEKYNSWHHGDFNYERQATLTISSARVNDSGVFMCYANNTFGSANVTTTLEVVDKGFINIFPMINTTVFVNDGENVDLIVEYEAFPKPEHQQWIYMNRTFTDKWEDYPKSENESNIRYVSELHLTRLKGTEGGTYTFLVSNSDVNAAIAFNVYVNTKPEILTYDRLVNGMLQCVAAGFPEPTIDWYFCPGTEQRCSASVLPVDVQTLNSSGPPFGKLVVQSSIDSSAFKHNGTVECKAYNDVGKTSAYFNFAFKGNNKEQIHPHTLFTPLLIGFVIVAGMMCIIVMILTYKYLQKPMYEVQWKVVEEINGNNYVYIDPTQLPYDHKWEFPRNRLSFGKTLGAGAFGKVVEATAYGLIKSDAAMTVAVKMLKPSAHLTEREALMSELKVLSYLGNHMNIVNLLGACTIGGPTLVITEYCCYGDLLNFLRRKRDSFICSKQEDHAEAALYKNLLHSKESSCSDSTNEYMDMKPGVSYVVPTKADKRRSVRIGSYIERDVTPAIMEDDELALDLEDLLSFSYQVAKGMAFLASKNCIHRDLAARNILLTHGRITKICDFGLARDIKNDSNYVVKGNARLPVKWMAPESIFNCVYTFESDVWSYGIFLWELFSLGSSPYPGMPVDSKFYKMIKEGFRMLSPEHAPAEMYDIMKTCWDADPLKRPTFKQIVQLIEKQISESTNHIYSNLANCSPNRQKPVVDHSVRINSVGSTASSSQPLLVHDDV

In the case of `COc1cc2[nH]c3ncnc(N4CCN(C(=S)NCc5ccc6c(c5)OCO6)CC4)c3c2cc1OC` [HPK61, 4-(6,7-Dimethoxy-9H-1,3,9-triaza-fluoren-4-yl)-piperazine-1-carbothioic acid (benzo[1,3]dioxol-5-ylmethyl)-amide], in the assay on GIST882 cell line [1] (GIST882, day 4), the “cells alive at day 4” value came to 5%. In addition, the pIC50 in the assay on GIST882 cell line [1] (Homo sapiens, 96 h, GIST882, 4 days, read-out: IC50 c-kit GIST882) is 6.35; in the assay on PANC-1 cells it was 4.80; in assay [2] it was 4.80 to 4.81; with GIST882 cell line [3] (Homo sapiens, GIST882, 96 hours), 6.35. Moreover, in the assay with GIST882 cell line [3] (FIG. 29, 96 hours), the “inhibitory activity in GIST882 cell line (in words)” value was “highest inhibitory activity”. In addition, on c-Kit, the “inhibition of c-Kit autophosphorylation (in words)” value is listed as “dose-dependent”.

The pIC50 is the IC50 on a negative log10 scale, so that one unit is a factor of ten.

The values above are taken from patent US8552018B2, “Substituted tricyclic compounds as protein kinase inhibitors” (Arizona Board of Regents on behalf of the University of …, priority 2003, dated 2013).
